What was measured:
[1] = tested on: hypoxic HUVECs; assay: Immunofluorescent adherence assay, HL60 binding to hypoxic HUVECs; assay type: cell-based, human
Procedure: (§1) Hypoxia or free radicals induce P-selectin (PS) translocation to the endothelial cell (EC) surface, where it participates in neutrophil (PMN) adhesion during reperfusion. To explore a mechanism whereby nitrovasodilators may attenuate postischemic leukosequestration, we tested whether stimulating the NO/cGMP pathway could attenuate surface PS expression in hypoxic human umbillical vein ECs. […] Under similar conditions, addition of the NO donor 3-morpholino sydnonimine (SIN-1, 0.1 mM) or the cGMP analog 8-Bromo-cGMP (cGMP, 10 nM) caused a reduction in vWF release; Control vWF, 11±0.4 mU/mL; SIN-1, 9.1±0.3 mU/mL; cGMP, 9.7±0.2 mU/mL; p<0.005 for both SIN-1 or cGMP vs Control.

[2] = tested on: intracellular calcium concentration [Cai]; assay: Intracellular calcium by fura-2 fluorescence in hypoxic ECs; assay type: cell-based, human
Procedure: as §1

[3] = tested on: P-selectin; assay: Surface P-selectin expression on hypoxic HUVECs (radiolabeled anti-PS antibody binding); assay type: cell-based, human
Procedure: as §1

[4] = tested on: hypoxic human umbillical vein ECs; assay: vWF release from hypoxic HUVECs, NO/cGMP pathway; assay type: cell-based; details: hypoxia pO2<20 Torr 4 hours; SIN-1 0.1 mM, 8-Bromo-cGMP 10 nM
Procedure: as §1

[5] = tested on: P-selectin; assay: EC P-selectin expression by specific binding of 125I anti-P-selectin antibody; assay type: cell-based, human; details: cycloheximide 10 μg/mL given at onset of H, 4 hour time point
Procedure: (§2) Measurement of Weibel-Palade body exocytosis: ECs were plated into 24 well plates, rinsed 3 times with Hank's balanced salt solution, and then exposed to hypoxia or to normoxia for the indicated durations. For experiments in which vWF was measured, cells were maintained in serum-free medium. All other EC experiments were performed in the EC growth medium described above. […] EC P-selectin expression was determined by measuring the specific binding of a murine monoclonal anti-human P-selectin antibody (WAPS 12.2 clone, Endogen, Cambridge, Mass.; this is an IgGl which recognizes a calcium sensitive epitope and blocks P-selectin dependent neutrophil adhesion. Antibody was radiolabelled with ^125I by the lactoperoxidase method (19) using Enzymobeads (Bio-Rad, Hercules, Calif.), stored at 4° C. and used within one week of labelling. Binding assays were performed on HUVECs plated on 96 well plates, in which fresh M199 with 0.1% bovine serum albumin (Sigma, St. Louis, Mo.) was added immediately prior to each experiment. […] After binding for 1 hour at 37° C., monolayers were washed 4 times with HBSS/A, and bound antibody was eluted with 1% triton X-100 in PBS (200 μL/well) and counted. […] Following 4 hours of normoxic exposure, trichloroacetic acid-precipitable material was collected and counted.

[6] = tested on: Human umbilical vein ECs; assay: vWF release from hypoxic endothelial cells (ELISA); assay type: cell-based; details: cycloheximide 10 μg/ml added at start of hypoxic period, 4 hours of hypoxia
Procedure: Endothelial cell culture and exposure of cells to H or H/R. Human umbilical vein ECs were prepared from umbilical cords and grown in culture by the method of Jaffe (16) as modified by Thornton (17). Experiments utilized confluent ECs (passages 1-4) grown in Medium 199 supplemented with fetal bovine serum (15%; Gemini, Calabasas, Calif.), human serum (5%; Gemini), endothelial growth supplement (Sigma, St. Louis, Mo.), heparin (90 μg/ml; Sigma) and antibiotics, as described (17). When ECs achieved confluence, experiments were performed by placing cultures in an environmental chamber (Coy Laboratory Products, Ann Arbor, Mich.) which provided a controlled temperature (37° C.) and atmosphere with the indicated amount of oxygen, carbon dioxide (5%) and the balance made up of nitrogen. Use of this chamber for cell culture experiments has been described previously (15,18). During exposure of ECs to hypoxia (for a maximum of 16 hours), the oxygen tension in the culture medium was 14-18 torr and there was no change in the medium pH. Reoxygenation was performed by placing ECs in an ambient atmosphere containing carbon dioxide (5%) at 37° C.
Measurement of Weibel-Palade body exocytosis: ECs were plated into 24 well plates, rinsed 3 times with Hank's balanced salt solution, and then exposed to hypoxia or to normoxia for the indicated durations. For experiments in which vWF was measured, cells were maintained in serum-free medium. All other EC experiments were performed in the EC growth medium described above. For measurement of vWF, 200 μL aliquots of culture supernatant was removed at the indicated times, and a commercially available ELISA (American Diagnostica, Greenwich, Conn.), based on a polyclonal goat anti-human vWF antibody, was performed on duplicate specimens, with a standard curve generated using purified human vWF antigen supplied by the same vendor. EC P-selectin expression was determined by measuring the specific binding of a murine monoclonal anti-human P-selectin antibody (WAPS 12.2 clone, Endogen, Cambridge, Mass.; this is an IgGl which recognizes a calcium sensitive epitope and blocks P-selectin dependent neutrophil adhesion. Antibody was radiolabelled with ^125I by the lactoperoxidase method (19) using Enzymobeads (Bio-Rad, Hercules, Calif.), stored at 4° C. and used within one week of labelling. Binding assays were performed on HUVECs plated on 96 well plates, in which fresh M199 with 0.1% bovine serum albumin (Sigma, St. Louis, Mo.) was added immediately prior to each experiment. Cells were placed in a humidified environment at 37° C., and exposed to normoxia or H (in the presence or absence of 50 μM probucol, as indicated, Sigma) for the indicated durations. Cell monolayers were fixed for 15 min. with 1% paraformaldehyde^10 (cells exposed to H were fixed while still within the hypoxic environment), visually inspected to ensure that the monolayers remained intact, and washed twice with HBSS containing 0.5% bovine serum albumin (HBSS/A). Monolayers were then exposed to 10^5 cpm of ^125I-labelled anti-P-selectin antibody (WAPS 12.2) in the presence of 200 μg/mL of either unlabelled blocking antibody (WAPS 12.2) or nonblocking anti-P-selectin IgG of the same isotype (anti-GMP-140, AC1.2 clone, Becton-Dickinson, San Jose, Calif.) (20,21). After binding for 1 hour at 37° C., monolayers were washed 4 times with HBSS/A, and bound antibody was eluted with 1% triton X-100 in PBS (200 μL/well) and counted. […]

[7] = tested on: ECs; assay: Protein synthesis: 35S-methionine/cysteine in trichloroacetic acid-precipitable material; assay type: cell-based; details: Homo sapiens; 10 μg/mL, 4 hrs
Procedure: as §2

Row | Compound | decrease of HL60 binding to hypoxic HUVECs vs controls [1] [%] | hypoxia-increased intracellular calcium concentration [Cai] [2] | PS expression in calcium-free medium ([3]; ECs in calcium-free medium) | decrease of surface PS expression vs controls ([3]; hypoxia 4 hours, SIN-1 0.1 mM, 8-Bromo-cGMP 10 nM) [%] | vWF release [4] [mU/mL] | hypoxia-induced endothelial P-selectin expression [5] | decrease of hypoxia-induced vWF release [6] [%] | inhibition at 10 µg/mL [7] [%]
1 | Nc1nc2c(nc(Br)n2[C@@H]2O[C@@H]3COP(=O)(O)O[C@H]3[C@H]2O)c(=O)[nH]1 [cGMP, 8-Bromo-cGMP] | 86 | could be blocked | Neither SIN-1 nor cGMP could further reduce PS expression | 48 | 9.7±0.2 | – | – | –
2 | C[C@@H]1C[C@@H]([C@H](O)CC2CC(=O)NC(=O)C2)C(=O)[C@@H](C)C1 [cycloheximide] | – | – | – | – | – | hypoxia still increased endothelial P-selectin expression, albeit at reduced levels | 12.5 | > 85
